Experimental data published in paper PMC11864979, “First-in-class ultralong-target-residence-time p38α inhibitors as a mitosis-targeted therapy for colorectal cancer” (Nature Cancer, 2025).
Where two headings read alike, the source gives them in different places.

Legend:
Assay in all cases: selectivity profiling in a panel of 340 wild-type kinases (Reaction Biology Europe)
Type in all cases: binding
340 wild-type kinases [1] = target: T1, 340 wild-type kinases (Homo sapiens, UniProt Q9NQU5)
T1 construct: purchased Reaction Biology Europe

340 wild-type kinases [2] = target: T2, 340 wild-type kinases (Homo sapiens, UniProt O43781)
T2 construct: purchased Reaction Biology Europe
T2 sequence (O43781 1-588): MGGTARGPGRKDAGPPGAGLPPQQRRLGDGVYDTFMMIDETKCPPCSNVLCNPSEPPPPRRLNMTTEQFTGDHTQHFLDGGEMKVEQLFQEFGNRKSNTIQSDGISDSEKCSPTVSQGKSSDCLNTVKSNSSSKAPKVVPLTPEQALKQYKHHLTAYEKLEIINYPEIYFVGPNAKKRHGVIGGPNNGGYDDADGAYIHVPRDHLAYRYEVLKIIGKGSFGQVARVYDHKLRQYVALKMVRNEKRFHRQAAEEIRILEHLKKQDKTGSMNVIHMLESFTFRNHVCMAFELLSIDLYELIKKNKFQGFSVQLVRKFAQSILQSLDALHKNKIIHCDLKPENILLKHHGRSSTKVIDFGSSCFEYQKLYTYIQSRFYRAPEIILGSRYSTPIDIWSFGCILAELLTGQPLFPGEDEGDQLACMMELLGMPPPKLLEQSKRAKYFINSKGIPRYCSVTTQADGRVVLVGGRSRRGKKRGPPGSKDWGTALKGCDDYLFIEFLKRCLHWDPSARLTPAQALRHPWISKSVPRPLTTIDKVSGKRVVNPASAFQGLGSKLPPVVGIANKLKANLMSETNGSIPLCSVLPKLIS

340 wild-type kinases [3] = target: T3, 340 wild-type kinases (Homo sapiens, UniProt Q15746)
T3 construct: purchased Reaction Biology Europe

340 wild-type kinases [4] = target: T4, 340 wild-type kinases (Homo sapiens, UniProt Q9BZL6)
T4 construct: purchased Reaction Biology Europe
T4 sequence (Q9BZL6 1-878): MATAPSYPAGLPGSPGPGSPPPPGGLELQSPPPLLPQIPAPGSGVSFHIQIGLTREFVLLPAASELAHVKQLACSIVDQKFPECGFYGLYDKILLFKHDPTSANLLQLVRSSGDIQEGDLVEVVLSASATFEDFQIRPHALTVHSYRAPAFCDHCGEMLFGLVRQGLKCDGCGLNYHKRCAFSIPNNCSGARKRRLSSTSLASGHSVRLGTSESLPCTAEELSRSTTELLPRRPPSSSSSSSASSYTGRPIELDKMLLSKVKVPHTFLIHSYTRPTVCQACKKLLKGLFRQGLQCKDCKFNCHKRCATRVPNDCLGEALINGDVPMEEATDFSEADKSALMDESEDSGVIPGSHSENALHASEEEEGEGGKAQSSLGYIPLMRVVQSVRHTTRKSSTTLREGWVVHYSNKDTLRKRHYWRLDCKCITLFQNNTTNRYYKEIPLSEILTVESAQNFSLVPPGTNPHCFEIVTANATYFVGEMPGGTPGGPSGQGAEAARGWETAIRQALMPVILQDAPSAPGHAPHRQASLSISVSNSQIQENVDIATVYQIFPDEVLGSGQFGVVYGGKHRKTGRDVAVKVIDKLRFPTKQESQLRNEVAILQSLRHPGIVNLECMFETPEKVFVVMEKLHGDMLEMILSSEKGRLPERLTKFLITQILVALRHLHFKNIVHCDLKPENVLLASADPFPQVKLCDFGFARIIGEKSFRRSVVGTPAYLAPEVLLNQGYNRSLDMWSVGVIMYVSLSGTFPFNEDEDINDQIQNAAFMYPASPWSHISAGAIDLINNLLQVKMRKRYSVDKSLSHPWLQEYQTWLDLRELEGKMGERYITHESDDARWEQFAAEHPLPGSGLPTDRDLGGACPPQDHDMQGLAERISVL

340 wild-type kinases [5] = target: T5, 340 wild-type kinases (Homo sapiens, UniProt P53350)
T5 construct: purchased Reaction Biology Europe

340 wild-type kinases [6] = target: T6, 340 wild-type kinases (Homo sapiens, UniProt Q16832)
T6 construct: purchased Reaction Biology Europe
T6 sequence (Q16832 22-855): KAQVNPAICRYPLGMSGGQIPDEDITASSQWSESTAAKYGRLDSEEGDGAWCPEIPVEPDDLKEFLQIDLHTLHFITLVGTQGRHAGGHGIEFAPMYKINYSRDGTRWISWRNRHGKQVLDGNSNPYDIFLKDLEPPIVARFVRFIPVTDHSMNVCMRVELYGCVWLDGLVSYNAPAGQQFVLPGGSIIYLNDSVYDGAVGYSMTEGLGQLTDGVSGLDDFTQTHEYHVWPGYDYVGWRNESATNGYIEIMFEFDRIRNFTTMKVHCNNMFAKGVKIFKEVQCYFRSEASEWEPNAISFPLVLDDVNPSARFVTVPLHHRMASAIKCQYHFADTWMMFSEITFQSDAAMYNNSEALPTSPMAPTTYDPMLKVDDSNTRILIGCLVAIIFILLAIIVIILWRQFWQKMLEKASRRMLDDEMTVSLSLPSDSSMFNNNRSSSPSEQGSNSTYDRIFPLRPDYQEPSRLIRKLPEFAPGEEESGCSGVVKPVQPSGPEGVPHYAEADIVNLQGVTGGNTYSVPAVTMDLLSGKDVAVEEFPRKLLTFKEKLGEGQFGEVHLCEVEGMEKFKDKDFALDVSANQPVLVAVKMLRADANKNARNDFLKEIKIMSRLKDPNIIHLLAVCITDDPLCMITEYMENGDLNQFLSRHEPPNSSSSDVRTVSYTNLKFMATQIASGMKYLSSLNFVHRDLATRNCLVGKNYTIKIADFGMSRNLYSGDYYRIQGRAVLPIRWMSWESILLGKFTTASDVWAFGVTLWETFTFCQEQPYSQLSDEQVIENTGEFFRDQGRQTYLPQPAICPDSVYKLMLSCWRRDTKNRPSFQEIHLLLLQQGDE

T3 sequence (Q15746 whole entry): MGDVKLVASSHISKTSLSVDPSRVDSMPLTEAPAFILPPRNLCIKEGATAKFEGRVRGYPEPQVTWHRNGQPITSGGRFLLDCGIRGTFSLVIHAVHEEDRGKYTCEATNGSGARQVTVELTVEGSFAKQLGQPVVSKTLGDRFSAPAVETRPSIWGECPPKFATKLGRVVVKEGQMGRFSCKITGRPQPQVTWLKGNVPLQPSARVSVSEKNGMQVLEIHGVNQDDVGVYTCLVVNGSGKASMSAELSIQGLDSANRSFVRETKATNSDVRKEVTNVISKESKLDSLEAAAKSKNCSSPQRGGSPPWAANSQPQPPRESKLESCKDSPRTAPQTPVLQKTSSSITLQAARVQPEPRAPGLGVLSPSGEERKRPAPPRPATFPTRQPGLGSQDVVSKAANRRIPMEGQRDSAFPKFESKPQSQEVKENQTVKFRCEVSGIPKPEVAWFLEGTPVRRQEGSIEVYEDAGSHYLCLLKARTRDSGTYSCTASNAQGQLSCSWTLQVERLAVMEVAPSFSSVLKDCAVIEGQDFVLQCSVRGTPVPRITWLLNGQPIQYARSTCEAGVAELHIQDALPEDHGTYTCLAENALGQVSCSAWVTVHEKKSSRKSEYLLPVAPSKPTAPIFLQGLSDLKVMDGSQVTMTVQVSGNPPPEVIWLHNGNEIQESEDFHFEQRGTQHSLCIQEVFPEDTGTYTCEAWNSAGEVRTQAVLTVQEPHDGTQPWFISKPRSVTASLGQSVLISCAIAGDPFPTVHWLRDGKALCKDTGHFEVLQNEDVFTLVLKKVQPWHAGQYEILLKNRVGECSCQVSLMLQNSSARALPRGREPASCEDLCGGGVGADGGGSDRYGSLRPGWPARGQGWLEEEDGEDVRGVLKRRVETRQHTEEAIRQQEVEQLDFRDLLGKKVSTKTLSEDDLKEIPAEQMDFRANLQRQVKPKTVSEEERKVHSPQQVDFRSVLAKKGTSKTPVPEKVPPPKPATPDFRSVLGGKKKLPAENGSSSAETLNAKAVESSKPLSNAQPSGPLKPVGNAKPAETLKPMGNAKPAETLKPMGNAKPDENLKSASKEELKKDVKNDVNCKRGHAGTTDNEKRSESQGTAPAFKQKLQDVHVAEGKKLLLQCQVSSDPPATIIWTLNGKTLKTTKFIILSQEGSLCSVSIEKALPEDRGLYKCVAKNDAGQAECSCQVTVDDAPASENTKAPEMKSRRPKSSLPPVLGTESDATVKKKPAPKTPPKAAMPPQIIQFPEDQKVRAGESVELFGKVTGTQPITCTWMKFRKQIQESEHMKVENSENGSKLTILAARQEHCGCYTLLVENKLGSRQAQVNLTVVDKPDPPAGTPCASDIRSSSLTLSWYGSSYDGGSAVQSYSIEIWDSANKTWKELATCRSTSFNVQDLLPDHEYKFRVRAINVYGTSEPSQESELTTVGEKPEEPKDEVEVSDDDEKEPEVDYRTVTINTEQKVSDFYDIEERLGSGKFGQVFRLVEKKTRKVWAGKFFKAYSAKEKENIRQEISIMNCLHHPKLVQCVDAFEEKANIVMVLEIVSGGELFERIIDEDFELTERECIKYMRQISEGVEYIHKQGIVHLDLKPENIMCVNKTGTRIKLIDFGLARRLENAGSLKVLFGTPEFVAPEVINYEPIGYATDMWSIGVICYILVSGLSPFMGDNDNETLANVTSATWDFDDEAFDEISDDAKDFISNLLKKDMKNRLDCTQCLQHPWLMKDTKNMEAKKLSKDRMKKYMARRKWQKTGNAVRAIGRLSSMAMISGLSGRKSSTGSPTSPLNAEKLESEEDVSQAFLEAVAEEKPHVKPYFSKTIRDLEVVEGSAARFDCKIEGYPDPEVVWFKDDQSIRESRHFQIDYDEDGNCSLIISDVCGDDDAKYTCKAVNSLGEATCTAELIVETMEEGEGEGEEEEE
T5 sequence (P53350 whole entry): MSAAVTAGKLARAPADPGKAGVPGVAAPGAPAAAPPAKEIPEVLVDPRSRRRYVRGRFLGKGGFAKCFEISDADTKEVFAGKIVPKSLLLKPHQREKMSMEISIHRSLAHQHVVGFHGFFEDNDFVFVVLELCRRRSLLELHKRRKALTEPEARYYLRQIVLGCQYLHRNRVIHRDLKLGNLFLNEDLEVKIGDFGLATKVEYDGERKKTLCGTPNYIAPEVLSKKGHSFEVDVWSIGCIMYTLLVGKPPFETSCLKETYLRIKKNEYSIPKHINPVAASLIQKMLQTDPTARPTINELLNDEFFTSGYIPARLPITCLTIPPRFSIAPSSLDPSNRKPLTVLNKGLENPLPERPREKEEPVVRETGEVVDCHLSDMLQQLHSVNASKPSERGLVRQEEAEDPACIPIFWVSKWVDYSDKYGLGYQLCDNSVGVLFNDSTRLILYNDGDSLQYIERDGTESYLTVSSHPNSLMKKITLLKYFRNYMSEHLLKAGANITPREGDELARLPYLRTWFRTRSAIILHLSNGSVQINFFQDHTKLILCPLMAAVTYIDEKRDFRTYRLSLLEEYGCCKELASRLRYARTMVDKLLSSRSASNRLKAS
T1 sequence (Q9NQU5 whole entry): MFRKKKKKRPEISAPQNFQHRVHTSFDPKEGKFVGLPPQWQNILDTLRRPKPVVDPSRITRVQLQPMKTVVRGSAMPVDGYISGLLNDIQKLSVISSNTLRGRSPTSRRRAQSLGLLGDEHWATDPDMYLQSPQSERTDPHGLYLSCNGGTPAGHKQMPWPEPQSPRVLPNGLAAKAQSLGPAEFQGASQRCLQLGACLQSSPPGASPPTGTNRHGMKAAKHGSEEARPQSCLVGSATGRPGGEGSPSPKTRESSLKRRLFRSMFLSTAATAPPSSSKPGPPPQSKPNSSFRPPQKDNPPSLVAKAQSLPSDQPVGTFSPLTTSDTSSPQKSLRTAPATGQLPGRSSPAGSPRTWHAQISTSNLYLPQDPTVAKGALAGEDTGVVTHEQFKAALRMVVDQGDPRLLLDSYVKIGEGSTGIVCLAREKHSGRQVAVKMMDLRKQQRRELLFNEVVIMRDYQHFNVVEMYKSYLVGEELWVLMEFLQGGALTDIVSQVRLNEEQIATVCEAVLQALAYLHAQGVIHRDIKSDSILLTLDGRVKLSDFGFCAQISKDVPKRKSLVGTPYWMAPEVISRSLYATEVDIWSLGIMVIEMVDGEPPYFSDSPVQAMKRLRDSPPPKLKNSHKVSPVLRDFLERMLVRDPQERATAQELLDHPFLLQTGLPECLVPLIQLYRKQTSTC

Work on CNC(=O)c1ccc2c(c1)C(=O)c1ccc(Nc3ccc(F)c(NC(=O)C4CC4)c3)cc1CC2 [Compound 2015] yielded a remaining activity at 0.2 µM (340 wild-type kinases [1]; 0.2 µM 2015, read-out: PAK6 residual activity) of 98%, a remaining activity at 1 µM (340 wild-type kinases [1]; 1 µM 2015, read-out: PAK6 residual activity) of 89.3% and a remaining activity at 0.2 µM (340 wild-type kinases [1]; PAK6, 0.2 µM, read-out: residual activity) of 98%. For the same compound, the remaining activity at 1 µM (340 wild-type kinases [1]; PAK6, 1 µM, read-out: residual activity) was 89.3%, the remaining activity at 0.2 µM (340 wild-type kinases [2]; 0.2 µM 2015, read-out: DYRK3 residual activity) was 104% and the remaining activity at 1 µM (340 wild-type kinases [2]; 1 µM 2015, read-out: DYRK3 residual activity) was 107%. It also gave a remaining activity at 0.2 µM (340 wild-type kinases [2]; DYRK3, 0.2 µM, read-out: residual activity) of 104%, a remaining activity at 1 µM (340 wild-type kinases [2]; DYRK3, 1 µM, read-out: residual activity) of 107% and a remaining activity at 0.2 µM (340 wild-type kinases [3]; 0.2 µM 2015, read-out: MYLK residual activity) of 109%. For the same compound, the remaining activity at 1 µM (340 wild-type kinases [3]; 1 µM 2015, read-out: MYLK residual activity) was 97.7%, the remaining activity at 0.2 µM (340 wild-type kinases [3]; MYLK, 0.2 µM, read-out: residual activity) was 109% and the remaining activity at 1 µM (340 wild-type kinases [3]; MYLK, 1 µM, read-out: residual activity) was 97.7%. For the same compound, the remaining activity at 0.2 µM (340 wild-type kinases [4]; 0.2 µM 2015, read-out: PRKD2 residual activity) was 66.4%, the remaining activity at 1 µM (340 wild-type kinases [4]; 1 µM 2015, read-out: PRKD2 residual activity) was 91.3% and the remaining activity at 0.2 µM (340 wild-type kinases [4]; PRKD2, 0.2 µM, read-out: residual activity) was 66.4%. The remaining activity at 1 µM (340 wild-type kinases [4]; PRKD2, 1 µM, read-out: residual activity) was 91.3%, the remaining activity at 0.2 µM (340 wild-type kinases [5]; 0.2 µM 2015, read-out: PLK1 residual activity) was 94.2% and the remaining activity at 1 µM (340 wild-type kinases [5]; 1 µM 2015, read-out: PLK1 residual activity) was 96.3%. It also gave a remaining activity at 0.2 µM (340 wild-type kinases [5]; PLK1, 0.2 µM, read-out: residual activity) of 94.2%, a remaining activity at 1 µM (340 wild-type kinases [5]; PLK1, 1 µM, read-out: residual activity) of 96.3% and a remaining activity at 0.2 µM (340 wild-type kinases [6]; 0.2 µM 2015, read-out: DDR2 residual activity) of 106%. It also gave a remaining activity at 1 µM (340 wild-type kinases [6]; 1 µM 2015, read-out: DDR2 residual activity) of 98.8%, a remaining activity at 0.2 µM (340 wild-type kinases [6]; DDR2, 0.2 µM, read-out: residual activity) of 106% and a remaining activity at 1 µM (340 wild-type kinases [6]; DDR2, 1 µM, read-out: residual activity) of 98.8%.
